Source: a melting point compilation (Tetko et al.; mined from patent text by program, amines drawn as free bases though some values may be those of a salt)

melting point [°C] | SMILES
281 to 283 | CCC(=O)OCc1ccc(-c2[nH]c(-c3cccc4ccccc34)nc2C(=O)Nc2nccs2)cc1
200 to 205 | Cn1c(C(F)(F)F)cc(=O)n(-c2ccc3snc(N4CCOCC4)c3c2)c1=O
90 to 92 | CCOCCn1c(COc2ccc(CO)cc2)nc2ccccc21
166 to 168 | CC(=O)CN1CCc2c(c(=O)oc3cc(C)c([N+](=O)[O-])cc23)C1
97 to 99 | COC(=O)c1cc(Cl)c(OCCn2ccnc2)s1
138 to 140 | CC(=O)c1cc(Cl)c(N=C=O)c(Cl)c1
225 to 228 | O=C(O)Cc1ccc(NC(=O)C(COc2cccc(Cl)c2)NS(=O)(=O)c2ccc(Br)cc2)cc1 (racemic)
65 to 66 | c1ccc2c(c1)CCc1cc(C3CO3)ccc1-2 (stereo not given)
65 to 67 | O=C(NCc1ccccn1)OCCOCCOC(=O)NCC1CCCCC1
70 to 71 | Cn1cccc1C(=NOCc1cccs1)C(=O)O
219 to 222 | CCN1C(=O)Nc2ccc(Cl)cc2C1(C#CC1(C)CC1)C(F)(F)F (stereo not given)
233 | NC(=O)c1cc(COc2nnc(Nc3ccc(Cl)cc3)c3ccsc23)ccn1
153 to 155 | CCC(NC(=NC#N)Nc1cccnc1)c1cccc(Cl)c1 (stereo not given)
154 to 155 | Nc1ncc(Oc2ccc(Cl)cc2)c(N[C@H]2CC[C@H](O)CC2)n1
80.5 to 82 | COc1ccc(C2COC(c3c(F)cccc3Cl)=N2)cc1-c1ccccc1 (stereo not given)
103 to 105 | CC1(C)[C@H](/C=C/Cl)[C@@H]1C(=O)O (relative stereo)
79 | CCCCCCCCCCCCCCCCCCOC(=O)c1ccc(C)c(N)c1
178 to 179 | CC(=O)NCC1CN(c2ccc(N3CCN(C(=O)CCC(=O)c4ccc(CN5CCOCC5)cc4)CC3)c(F)c2)C(=O)O1 (stereo not given)
206 to 210 | OCC1CC(n2c(Cl)nc3cc(Cl)c(Cl)cc32)C(O)C1O (stereo not given)
163 to 166 | Cc1cc2cc(CN3CCCC3)cnc2cc1NC(=O)c1ccc(-c2ccc(F)cc2)c(F)c1
117 to 118 | Cc1c(Cl)csc1-c1nc(-c2c(F)cccc2Cl)nn1C
205 to 206 | COC(=O)C1=C(C)NC(C)=C(c2nc(CCl)ns2)C1c1cccc([N+](=O)[O-])c1 (stereo not given)
58 to 59 | CCOc1cc(N(CC)CC)ccc1C=O
126 to 127 | COC(=O)c1ccc2scc(Cl)c2n1
> 260 | COc1cccc(OC)c1-c1cc(C(=O)NC2(C(=O)O)C3CC4CC(C3)CC2C4)nn1-c1cccc2ncccc12 (stereo not given)
152 | NC(=S)c1cc(Oc2ccc(C(F)(F)F)cc2Cl)ccc1[N+](=O)[O-]
90 | CC(C)(C)OC(=O)Nc1ccc(Cl)c(C(F)(F)F)c1
189 to 190 | Oc1csc(Cc2n[nH]c3ccccc23)c1
181 to 183 | O=C1CCC(N2C(=O)c3cccc(CNC(=O)c4cccc(Br)n4)c3C2=O)C(=O)N1 (stereo not given)
72 to 75 | CN(Cc1cc2c(=O)c(C(=O)NCc3ccc(Cl)cc3)cn(C)c2o1)CC(O)c1ccc(O)cc1 (stereo not given)

Continued, molecule first:

SMILES | melting point [°C]
CCOC(=O)C(C)NC(=O)CN(C(=O)c1ccc(Cl)cc1)c1c(C)cccc1C (stereo not given) | 91 to 92
N#CC(=NO)C(=O)c1ccccc1 | 117 to 119
O=C(Nc1ccc(-c2ccccc2)cc1)c1cccc([N+](=O)[O-])c1O | 152
NC(=O)c1cccc2c3c(cc([N+](=O)[O-])c12)N(C(=O)C(F)(F)F)CC3CCl (stereo not given) | 272 to 277
COc1ccc(-c2noc(CC(=O)O)c2-c2ccc(OC)cc2)cc1 | 142 to 143
CN(C(=O)c1ccc2nonc2c1)C1CCS(=O)(=O)CC1 | 238 to 239
CC(=O)NCC1CCC(C(=O)N2CC2C#N)CC1 (stereo not given) | 92 to 94
CNC(=O)OC(Cn1cncn1)c1ccc(Cl)cc1Cl (stereo not given) | 204
Cc1cccnc1CCOc1ccc(NC(=O)N(C)C)cc1 | 123 to 125
Nc1ccc(C(=O)c2cccc(F)c2)cc1 | 98 to 100
CCC(CC(N)=O)c1cccc2nc3n(c12)CCCN3c1ccc(Cl)cc1Cl (stereo not given) | 132 to 133
CCOC(=O)C1=C(C2CC2)Nc2n[nH]cc2C1c1ccccc1Br (stereo not given) | 168 to 170
COC1CCN(c2ccn3nc(-c4ccccc4)c(-c4ccc(=O)n(C(C)C)n4)c3c2)CC1 | 177 to 178
O=C1CSCC(=O)NCCNCCN1 | 206 to 208
CCCCCCCCc1cc2c(cc1C(C)=O)C(C)(C)CCS2(=O)=O | 77 to 78
CC(=O)N(C(C)=O)c1cc2c(c(N(C(C)=O)C(C)=O)c1)OC(C(Cl)(Cl)Cl)OC2C(Cl)(Cl)Cl (stereo not given) | 182 to 183
O=C(N[C@H]1CC[C@H](CCN2CCN(c3nccc4c3CCO4)CC2)CC1)c1ccccc1 | 208
CC1CC(=O)NN=C1c1ccc(NCC(C)(C)N)cc1 (stereo not given) | 184 to 185
CCCCCC(=O)NS(=O)(=O)/C=C/c1cc(OCCCC)nn1Cc1ccc(Cl)cc1Cl | 117 to 119
N#Cc1ccc(-c2ccc(O)cc2)cc1F | 67 to 68
O=C(NC(Cc1ccc(OCc2ccc(F)cc2)cc1)C(=O)O)c1cn2ccc(-c3ccc(Cl)cc3)cc2n1 (stereo not given) | 255 to 257
COC(=O)[C@H](Cc1cc(I)c(OCCCBr)c(I)c1)NC(=O)OC(C)(C)C | 102 to 103
OC1CCCCC1Oc1ccc(Oc2ccccc2)cc1 (stereo not given) | 103 to 105
CN1CC(CN2CC(=O)NC2=O)CC2c3cccc4[nH]cc(c34)CC21 (stereo not given) | 199 to 201

SMILES | melting point [°C]
COc1cc2c(cc1C)CCC2c1cnc[nH]1 (stereo not given) | 68 to 70
CCCNC(=O)CCCc1ccc2c(c1)c(Cc1ccc(C(=O)NS(=O)(=O)c3ccccc3C)cc1OC)cn2CCC | 94 to 95
COCCNC(=O)c1cc(F)cc(-c2cccc3c(F)c(Cc4cccc(C(F)(F)F)c4)sc23)c1 | 109 to 110
COC(=O)c1cnc2c3cc(NC(=O)CC(C)(C)C)ccc3ncn2c1=O | 247 to 249
NCC1CN(c2c(F)cc3c(=O)c(C(=O)O)cn(-c4nc(N)c(F)cc4F)c3c2Cl)C1 | 249 to 254
CC(C)c1ccc2c(c1)C=C(C(=O)O)CC2 | 160 to 162
CC(=O)COc1cc2c(c(Cl)c1Cl)C(=O)C(C)(c1ccccc1)C2 (stereo not given) | 144
CC(C)[C@H](NC(=O)N(C)Cc1csc(NC(=O)OC(C)(C)C)n1)C(=O)N[C@@H](Cc1ccccc1)[C@@H](O)C[C@H](Cc1ccccc1)NC(=O)OCc1cccnc1 | 95 to 98
Cn1c(=O)n(CCCN2CCC3(CC2)C(=O)NCN3c2ccccc2)c2ccccc21 | 164
C#CCN1CC[C@H](O)C1=O | 89 to 90
O=Cc1cnc2sc3c(n12)CCCCCC3 | 106 to 107
COC(=O)c1cc(C(C)=O)ccc1OC | 72 to 74
Fc1cc2c(cc1F)C(n1cc[nH]c1=S)CC2 (stereo not given) | 183 to 187
O[C@@H](CNCCOc1ccc2oc(-c3ccon3)cc2c1)COc1ccccc1C(F)(F)F | 90 to 91
CCn1c(=O)n(C2CCN(C(C)(C)CCCN3C(=O)c4ccccc4S3(=O)=O)CC2)c2ccccc21 | 182 to 185
COc1nc2cc(Br)c3c(c2nc1OC)CCN(C)C3 | 162
C#CCOC[C@@H](NC(C)=O)C(=O)OC | 58.5 to 59.5
CCOC(=O)c1oc2cccc(C(C)OC)c2c1C (stereo not given) | 67 to 69
COc1ccccc1C1SCCCS1 | 127 to 128
O=C(Nc1ccc(OCc2ccncc2)c2ccccc12)c1cc(F)cc(N2CCCCC2)c1 | 69 to 71
CCOC(=O)c1cn(C2CC2)c2c(F)c(C(C#N)C(=O)OCC)c(F)c(F)c2c1=O (stereo not given) | 98 to 100
OCc1cc2c(Oc3ccc(Cl)cc3)cncc2s1 | 90 to 91
Cn1ncc(-c2ccnc(Cl)n2)c1-c1ccc(Cl)cc1Cl | 122 to 125
COC(=O)CCCCCCCC(=O)Nc1c(I)c(C(=O)O)c(I)c(N(C)C(C)=O)c1I | 198 to 203

SMILES | melting point [°C]
COCc1ncn2c1CN(C)C(=O)c1c(Cl)cccc1-2 | 143 to 144
COc1ccc2c(c1)c(CC(=O)O)c(C)n2C(=O)c1ccc(OC(F)(F)F)cc1 | 136 to 138
Cc1cc(C)c2c(n1)Nc1cc(C)c(C)cc1N(C)C2=O | 225 to 227
Nc1ccccc1NS(=O)(=O)c1cc(C(=O)O)cc(NCc2ccco2)c1Oc1ccccc1 | 105 to 110
Cc1cc(O)n2nc(SCc3ccccc3)nc2c1 | 214 to 216
C=C1CCCC2(C)C1=CC(=O)C1C3CCC(=O)C3(C)CCC12 (stereo not given) | 132
CCOC(=O)c1cn(-c2ccc(F)cc2F)c2nc(O)c(F)cc2c1=O | 243 to 248
NC(=O)C(c1ccc(C(=O)O)cc1)C(Cc1ccccc1)c1ccccc1N1CCCCC1 (stereo not given) | 214 to 215
COC(=O)c1ccccc1NC(=O)CCl | 97 to 99
CNC(=O)c1c(C)c([N+](=O)[O-])cc2nc(OC)c(OC)nc12 | 205 to 206
CC(C)(C)c1ccc2c(c1)C(CO)c1cc(C(C)(C)C)ccc1-2 | 102 to 103
Cc1cc(-c2nn(-c3cccc(C(F)(F)F)c3)ccc2=O)n(-c2ccccc2)n1 | 167 to 168
CCCCCCCCC1C=CC(C(=O)c2ccc(C(=O)O)o2)=C2N=C3CCCCC3=C21 (stereo not given) | 140 to 142
COC(=O)CCC(=O)Nc1cccc2c1C(=O)N(C1CCC(=O)NC1=O)C2=O (stereo not given) | 224 to 226
CC(=O)OC1CSC(Oc2cccnc2C(=O)N(C)C)C(OC(C)=O)C1OC(C)=O (stereo not given) | 85 to 89
O=[N+]([O-])c1cnc2ccc(Cl)cc2c1Nc1ccccc1 | 174 to 175
N#Cc1ccc(N(Cc2ccc(OS(N)(=O)=O)c(Br)c2)n2cnnc2)cc1-c1cc2ccccc2o1 | 199 to 200
Cc1ccc(C=CC(=O)N2CCc3c([nH]c4ccccc34)C2c2ccc3c(c2)OCO3)cc1 (stereo not given) | 240
CC(C)NC(=O)CN1CCN(c2nnc(N)[nH]2)CC1 | 225 to 226
O=C1N(N2CCCCC2)c2ccccc2C1(Cc1ccncc1)c1ccccc1 (stereo not given) | 128 to 131
O=C1CCCC(=O)c2cc(OCc3ccccc3)ccc2N1 | 169 to 170
O=c1oc(/C=C/c2ccccc2)ns1 | 105 to 106
